US4424229A, “Fluorine containing 2,4,5-triphenylimidazoles” (A/S Dumex (Dumex Ltd.), priority 1982, dated 1984)
Where two headings read alike, the source gives them in different places.

Legend:
[1] = test system: acetic acid induced writhing movements; assay: Writhing test in mice (acetic acid); assay type: in vivo, mice (NMRI/BOM); conditions: Mus musculus, po, 20 min, read-out: Analgesic ED50, writhing test
Description: (§1) Tests for analgesic activity
(§2) 1. Writhing test in mice. (SPF females of the strain NMRI/BOM, weighing 20-25 g). The test substance was administered by gavage 1/2 hour prior to an intraperitoneal injection of acetic acid. The number of writhing movements in 20 minutes was counted.

PG-synthetase = assay: Prostaglandin-synthetase inhibition test (Vane); assay type: biochemical; conditions: AA = arachidonic acid
[2] = test system: arachidonic acid induced aggregation of human platelet rich plasma; assay: Platelet aggregation inhibition test (arachidonic acid induced, human platelet rich plasma); assay type: cell-based; conditions: AA = arachidonic acid
Description: Platelet aggregation inhibition test The ability of the test substance to inhibit arachidonic acid induced aggregation of human platelet rich plasma was tested in a HU aggregometer (from H. Upchurch & Co. Ltd.).

[3] = test system: arachidonic acid induced bronchoconstrictions; assay: Inhibition of arachidonic acid induced bronchoconstrictions in guinea-pigs; assay type: in vivo; conditions: Cavia porcellus, read-out: Inhibition of arachidonic acid induced bronchoconstrictions ID50
Description: Inhibition of arachidonic acid (AA) induced bronchoconstrictions in guinea-pigs. Test compounds were given intravenously to anaesthetized guinea-pigs 5 min. before intravenous injection of AA (200-500 μg/kg). Bronchial pressure was measured and percent inhibition calculated as compared to the mean of 3 preceding AA-induced control constrictions obtained after injection of vehicle in the same animal.

[4] = test system: brewer's yeast injected rat paw; assay: Randall-Selitto test in rats (analgesia-meter, brewer's yeast paw); assay type: in vivo, rats (Sprague-Dawley); conditions: po, gavage 2 hours after brewer's yeast in paw, read-out: Analgesic ED50, analgesia-meter
Description: Tests for analgesic activity 2. Randall-Selitto test in rats. (SPF males of the strain Sprague-Dawley, weighing 90-100 g). The test was performed on the whole as described by Randall and Selitto: Arch. Int. Pharmacodyn. Ther. 111, 409 (1957).

[5] = Ulcerogenic activity in rats; assay type: in vivo, rats (Sprague-Dawley); conditions: rat, in vivo, po
Description: (§3) Ulcerogenic activity in rats
(§4) SPF males of the strain Sprague-Dawley weighing 180-250 g were used. 5 hours after administration by gavage of the test substance the rates were killed by an overdose of ether. The stomachs were removed and opened along the greater curvature. The number of ulcers was assessed and compared to control rats.

[6] = Tests for analgesic activity (general); assay type: in vivo, mice; rats; conditions: compared with the compounds of the invention, or general
Description: as §1, §2
2. Randall-Selitto test in rats. (SPF males of the strain Sprague-Dawley, weighing 90-100 g). The test was performed on the whole as described by Randall and Selitto: Arch. Int. Pharmacodyn. Ther. 111, 409 (1957). An analgesia-meter of the make Ugo Basile was used and the test substance was administered by gavage 2 hours after injection of a suspension of brewer's yeast into the rat paw.

in vivo = conditions: mouse; for LD50 at 168 h: po, read-out: Acute toxicity LD50
Description: Test for acute toxicity (LD50) in mice
The test substance was administered by gavage.

[7] = test system: carrageenin-injected rat paw; assay: Test for antiinflammatory activity in rats (carrageenin paw); assay type: in vivo, rats (Sprague-Dawley); conditions: po, read-out: Antiinflammatory test ED50
Description: Test for antiinflammatory activity in rats SPF males of the strain Sprague-Dawley, weighing~150 g were used. The test was performed according to Winter et al.: Proc. Soc. […] The test substance was given by gavage 1 hour prior to injection of a carrageenin-suspension into the rat paw.

stomach ulcers = assay: Ulcerogenic activity in rats; assay type: in vivo, rats (Sprague-Dawley); conditions: rats, gavage, 5 hours
Description: as §3, §4

[8] = mice, gavage 1/2 hour before i.p. acetic acid, writhings in 20 minutes
[9] = guinea-pigs, intravenous, 5 min before i.v. AA (200-500 μg/kg)

Compound | ED50 [1, 8] | Inhibition of PG-synthetase IC50 (PG-synthetase) | Inhibition of platelet aggregation IC100 [2] | ED50 [3, 9] | other results
COc1ccc(-c2nc(-c3c(F)cccc3F)[nH]c2-c2ccc(OC)cc2)cc1 [Compound 8, 2-(2,6-Difluorphenyl)-4,5-bis(4-methoxyphenyl)imidazole] | 6.8 mg/kg | 0.13 μg/10 μg AA | 0.012 μg/190 μg AA | 0.0049 mg/kg | –
COc1ccc(-c2nc(-c3ccc(F)c(F)c3)[nH]c2-c2ccc(OC)cc2)cc1 [Compound 9, 2-(3,4-Difluorphenyl)-4,5-bis(4-methoxyphenyl)imidazole] | 1.9 mg/kg | 0.11 μg/10 μg AA | 0.006 μg/190 μg AA | 0.0115 mg/kg | ED50 [4]: 0.062 mg/kg; TD50 at 5 h [5]: 45 mg/kg
COc1ccc(-c2nc(-c3cccc(F)c3)[nH]c2-c2ccc(OC)cc2)cc1 [Compound 3, 2-(3-Fluorphenyl)-4,5-bis(4-methoxyphenyl)imidazole] | 3.2 mg/kg | 0.21 μg/10 μg AA | 0.12 μg/190 μg AA | 0.0036 mg/kg | –
COc1ccc(-c2nc(C(C)C)[nH]c2-c2ccc(OC)cc2)cc1 [Compound 12, 2-Isopropyl-4,5-bis(4-methoxyphenyl)imidazole, reference compound] | 200 mg/kg | – | – | – | Analgesic activity (in words) [6]: much weaker analgesic activity than the compounds of the present invention
COc1ccc(-c2nc(-c3cccc(F)c3F)[nH]c2-c2ccc(OC)cc2)cc1 [Compound 5, 2-(2,3-Difluorphenyl)-4,5-bis(4-methoxyphenyl)imidazole] | 4.6 mg/kg | 0.21 μg/10 μg AA | 0.024 μg/190 μg AA | 0.0087 mg/kg | LD50 at 168 h (in vivo): 3120 mg/kg
COc1ccc(-c2nc(-c3cc(F)ccc3F)[nH]c2-c2ccc(OC)cc2)cc1 [Compound 7, 2-(2,5-Difluorphenyl)-4,5-bis(4-methoxyphenyl)imidazole] | 16 mg/kg | 1.71 μg/10 μg AA | 0.024 μg/190 μg AA | 0.0024 mg/kg | –
COc1ccc(-c2nc(-c3ccc(F)cc3F)[nH]c2-c2ccc(OC)cc2)cc1 [Compound 6, 2-(2,4-Difluorphenyl)-4,5-bis(4-methoxyphenyl)imidazole] | 4 mg/kg | 0.27 μg/10 μg AA | 0.12 μg/190 μg AA | 0.0021 mg/kg | TD50 at 5 h [5]: 1580 mg/kg
CC(=O)Oc1ccccc1C(=O)O [Compound 15, Acetyl salicylic acid, reference compound] | – | 7.61 μg/10 μg AA | 2.38 μg/190 μg AA | – | ED50 [1]: 100 mg/kg; ED50 [7]: 350 mg/kg; Ulcerogenic activity ED50 (stomach ulcers): 340 mg/kg; ED50 ([3]; iv): 0.234 mg/kg
COc1ccc(-c2nc(-c3ccc(F)cc3)n(CCC(=O)O)c2-c2ccc(OC)cc2)cc1 [Compound 1, 1-(2-Carboxyethyl)-2-(4-fluorphenyl)-4,5-bis(4-methoxyphenyl)imidazole, reference compound] | > 200 mg/kg | – | – | – | –
COc1ccc(-c2nc(-c3ccccc3F)[nH]c2-c2ccc(OC)cc2)cc1 [Compound 2, 2-(2-Fluorphenyl)-4,5-bis(4-methoxyphenyl)imidazole] | 15 mg/kg | 0.23 μg/10 μg AA | 0.024 μg/190 μg AA | 0.0106 mg/kg | –
CC(C)(C)NCC(O)c1ccc(O)c(CO)c1 (stereo not shown) [Compound 16, Salbutamol, reference compound] | – | – | – | 0.016 mg/kg | –
COc1ccc(-c2nc(C(F)(F)F)[nH]c2-c2ccc(OC)cc2)cc1 [Compound 11, 2-Trifluormethyl-4,5-bis(4-methoxyphenyl)imidazole, reference compound] | 75 mg/kg | – | 0.06 μg/190 μg AA | – | Toxicity (in words) (in vivo): higher toxicity than the compounds of the present invention; Analgesic activity (in words) [6]: weaker analgesic activity
COc1ccc(-c2nc(-c3ccc(F)cc3)[nH]c2-c2ccc(OC)cc2)cc1 [Compound 4, 2-(4-Fluorphenyl)-4,5-bis(4-methoxyphenyl)imidazole] | 5 mg/kg | 0.18 μg/10 μg AA | 0.048 μg/190 μg AA | 0.0047 mg/kg | –
COc1ccc(-c2nc(-c3cc(F)cc(F)c3)[nH]c2-c2ccc(OC)cc2)cc1 [Compound 10, 2-(3,5-Difluorphenyl)-4,5-bis(4-methoxyphenyl)imidazole] | 10 mg/kg | 0.38 μg/10 μg AA | 0.12 μg/190 μg AA | 0.0097 mg/kg | LD50 at 168 h (in vivo): > 2000 mg/kg
COc1ccc2c(c1)c(CC(=O)O)c(C)n2C(=O)c1ccc(Cl)cc1 [Compound 13, Indomethacin, reference compound] | – | 0.65 μg/10 μg AA | 1.19 μg/190 μg AA | – | ED50 [1]: 8 mg/kg; ED50 [4]: 0.36 mg/kg; ED50 [7]: 28 mg/kg; Ulcerogenic activity ED50 (stomach ulcers): 9.7 mg/kg; ED50 ([3]; iv): 0.115 mg/kg
COc1ccc2cc([C@H](C)C(=O)O)ccc2c1 [Compound 14, Naproxen, reference compound] | – | 0.49 μg/10 μg AA | – | – | Ulcerogenic activity ED50 (stomach ulcers): 19.5 mg/kg
